Patent US9207232B2, “Ceramide derivative and Golgi apparatus-labeling fluorescent probe using same” (National University Corporation Chiba University, priority 2011, dated 2015)
Several values for one entry are separate records, joined by “and”; a condition that tells them apart may be missing. Equal values may be shown once.

Assays:
[1] = system: Golgi apparatus in CHO cells; conditions: 30 minutes after addition, or two hours later when metabolized; J Cell Biol. 1985; cited from earlier work
CHO cells [2] = assay: Evaluation of incorporation into cell (fluorescence of organic layer extract); assay type: cell-based, hamster; conditions: 10 μM, 1, 2, 6, 24 or 48 hours at 37° C.
Description: Firstly, the CHO cells were seeded into each well of a 24-well plate at 2×10^4 cells/well, and cultured in a Ham's F12(+) medium at 37° C. for one day. After that, medium exchange to a medium in which 0.1% BSA and 10 mM HEPES are added into a Ham's F12(−) medium which is a serum-free medium was performed, and the culture was further performed at 37° C. for 18 hours, then into which the compound 9 (10 μM) was added. After the addition, the resultant mixture was cultured at 37° C. for 1, 2, 6, 24, or 48 hours, and subjected to an assay. Further, as a negative control, the same experiment was performed with the NBD-C6-ceramide. […] Therefore, in this experiment, firstly, the cells were cultured for 18 hours in a serum-free medium, and the incorporation and metabolism of a serum-derived compound were decreased, then the test compound was added, and thus an experimental system was constructed such that the pure incorporation and metabolism of the test compound itself can be measured.
As the assay, firstly, the incorporation of the ceramide derivative (compound 9) into a cell was evaluated. […]
Subsequently, the obtained organic layer sample was added into a 96-well plate, and the fluorescence emission of the ceramide derivative was detected by using an image analyzer (LAS1000, manufactured by FUJIFILM Corporation). […]

CHO cells [3] = assay: Evaluation of intracellular metabolism by TLC; assay type: in vitro ADME, hamster; conditions: 10 μM
Description: Firstly, the CHO cells were seeded into each well of a 24-well plate at 2×10^4 cells/well, and cultured in a Ham's F12(+) medium at 37° C. for one day. After that, medium exchange to a medium in which 0.1% BSA and 10 mM HEPES are added into a Ham's F12(−) medium which is a serum-free medium was performed, and the culture was further performed at 37° C. for 18 hours, then into which the compound 9 (10 μM) was added. After the addition, the resultant mixture was cultured at 37° C. for 1, 2, 6, 24, or 48 hours, and subjected to an assay. Further, as a negative control, the same experiment was performed with the NBD-C6-ceramide. Herein, ceramide, sphingosine, and the like are contained in the serum, and the incorporation and metabolism of these substances are constantly in progress. Therefore, in this experiment, firstly, the cells were cultured for 18 hours in a serum-free medium, and the incorporation and metabolism of a serum-derived compound were decreased, then the test compound was added, and thus an experimental system was constructed such that the pure incorporation and metabolism of the test compound itself can be measured.
As the assay, firstly, the incorporation of the ceramide derivative (compound 9) into a cell was evaluated. Specifically, cells that had been cultured for a predetermined time in the presence of the compound were washed twice with HBSS (Hank's Balanced Salt Solution: pH 7.4) containing 0.1% BSA and 10 mM HEPES, and then using a cell scraper and 250 μL of HBSS, the cells were detached from the wells. Into the cell extract thus obtained, 500 μL of chloroform, 500 μL of methanol, and 250 μL of water were added, and the cell extract was prepared in two-layer form of an organic layer and an aqueous layer. Further, since the ceramide derivative and other major sphingolipids are compounds that migrate to the organic layer, the cell extract in two-layer form was centrifuged for 10 minutes under the conditions of 3000 rpm at 4° C., and thus only the organic layer was isolated.
On the other hand, as another assay, the metabolism of the ceramide derivative (compound 9) was evaluated. Specifically, 20 μL of the organic layer sample thus obtained above was spotted on a TLC plate, and developed with a development solvent (1-butanol:acetic acid:water=3:1:1), then the intracellular metabolism of the sample was evaluated by using an image analyzer (LAS1000).
Further, by using a free software (Image J), the abundance of each metabolite was converted into a numerical value. The results are shown in E) of FIG. 2 (NBD-C6-ceramide (negative control)), and F) of FIG. 2 (compound 9). In the meantime, the numerical value of each amount of C16-glucosylceramide-NBD-like molecules and C16-sphingomyelin-NBD-like molecules was determined from the mobility in the TLC.

[4] = system: Golgi apparatus in CHO cells; assay: Evaluation of localization to the Golgi apparatus (co-staining with BODIPY-TR-Ceramide, confocal laser scanning microscope); assay type: cell-based, hamster; conditions: 1 μM, 1.5 hours, then BODIPY-TR-Ceramide 5 μM 30 minutes
Description: It was evaluated whether or not the localization of the compound 9 into a cell is really due to the localization to the Golgi apparatus. Specifically, BODIPY-TR-Ceramide (Cat D-7540 Red manufactured by Molecular Probes), which is another Golgi marker known to be difficult to be metabolized, was added together with the compound 9 into a cell, and the observation was performed by using a confocal laser scanning microscope.
Firstly, the CHO cells were seeded into each well of a 24-well plate at 0.5×10^4 cells/well, and cultured in a Ham's F12(+) medium at 37° C. for two days. […] After completion of the culture, the cells were washed twice in the same manner as described above, and then the fluorescence emission from the cells was observed. […] In addition, the time course of the cell culture and compound addition is the one recommended by data sheets or previous reports as the time course in which BODIPY-TR-Ceramide can be detected more sensitively. The observation was performed by using a confocal laser scanning microscope, and the measurement of the fluorescence emission from the BODIPY-TR-Ceramide was performed at the maximum excitation wavelength of 598 nm, and the maximum fluorescence wavelength of 617 nm, to measure the “red”. […]

[5] = system: Golgi apparatus in CHO cells; assay: Changes in localization to the Golgi apparatus over time (fluorescence observation); assay type: cell-based, hamster; conditions: 1 μM, 1, 2, 6, 24 or 48 hours at 37° C.
Description: Subsequently, it was evaluated whether or not the localization of the compound 9 in the Golgi apparatus can be maintained over a long period of time. Specifically, by the method similar to that described above, the compound 9 or the NBD-C6-ceramide (negative control) (each of both is in 1 μM) was added, then the resultant mixture was cultured at 37° C. for 1, 2, 6, 24, or 48 hours, and the fluorescence (green) derived from the compound was observed.
The upper part of FIG. 4 is a set of pictures showing the results of the observation for the NBD-C6-ceramide (negative control), the pictures were taken by using a photomultiplier tube PMT:430. The middle part of FIG. 4 is a set of pictures showing the results of the observation for the compound 9, the pictures were taken by using a photomultiplier tube PMT:430. The lower part of FIG. 4 is a set of pictures showing the results of the observation for the compound. 9, the pictures were taken by using a photomultiplier tube PMT:500. At this point, the expression of “430” or “500” means detection sensitivity (size of the energy required to detect the emission derived from a compound), and the smaller the value, the higher the sensitivity. […]

cell = assay: Staining of the Golgi apparatus with conventional probe (investigation by the present inventors); assay type: cell-based; conditions: cytotoxic effect
Description: A NBD-C6-ceramide has a cytotoxic effect, therefore, kills a cell itself within 24 hours from the incorporation into the cell, and thus the cell observation cannot be continued anymore. Further, an endogenous ceramide is metabolized into a glucosylceramide by being added with an oligosaccharide in the Golgi apparatus, or metabolized into sphingomyelin by receiving the transfer of phosphocholine from phosphatidylcholine, as a result, the metabolite is sent to cell membrane and becomes a component of the cell membrane. The NBD-C6-ceramide is, in the same manner as in the endogenous ceramide, metabolized to glucosylceramide or sphingomyelin in the Golgi apparatus, and the metabolite is transported to cell membrane from the Golgi in a few hours, therefore, the continuous staining is also difficult in this respect.

CHO cells [6] = assay: Evaluation of cytotoxicity (changes in cell number); assay type: cell-based, hamster; conditions: 10 μM; for cell number after addition (24 hours) relative to before addition: before addition = 100%, no additives 170 ± 51%; for cell number after addition (24 hours): serum-free medium, before addition 12,600 cells/well
Description: Subsequently, as to the compound 9 synthesized in the above, the cytotoxicity was evaluated as the effect on the change in cell number.
Firstly, the CHO cells were seeded into each well of a 24-well plate at 1×10^4 cells/well, and cultured in a Ham's F12(+) medium at 37° C. for one day. The cell number one day after the culture was 1.26×10^4 cells/well. After that, medium exchange to a medium in which 0.1% BSA and 10 mM HEPES are added into a Ham's F12(−) medium which is a serum-free medium was performed, and in the presence of the compound 9 (10 μM), the culture was further performed for one day. Further, as a negative control, the same experiment was performed with the NBD-C6-ceramide described in Non Patent Literature 1. In addition, the same experiment was also performed for the case of no additives.

CHO cells [7] = assay: Evaluation of cytotoxicity (alteration of cell shape); assay type: cell-based, hamster; conditions: 10 μM, serum-free medium, cultured one day
Description: As to the compound 9 synthesized in the above, the cytotoxicity was evaluated as the effect on the change in cell morphology.
As the cultured cells, cells obtained by the culture of CHO cells, which is a cell strain derived from the ovary of hamster, in a Ham's F12 medium were used.
Firstly, the CHO cells were seeded into each well of a 24-well plate at 2×10^4 cells/well, and cultured in a Ham's F12(+) medium at 37° C. for one day. After that, in order to eliminate the influence of ceramide, sphingosine, and the like, medium exchange to a medium in which 0.1% BSA and 10 mM HEPES are added into a Ham's F12(−) medium which is a serum-free medium was performed, and in the presence of the compound 9 (10 μM), the culture was further performed for one day. Further, as a negative control, the same experiment was performed with the a NBD-C6-ceramide described in Non Patent Literature 1.

Row | SMILES | retention in the Golgi apparatus after addition into a cell [1] | amount incorporated into a cell with the lapse of time (CHO cells [2]) | fraction that became a metabolite in 6 hours (CHO cells [3]) | amount of compound after metabolism in 24 hours (CHO cells [3]; 24 hours) | fraction metabolized in 48 hours (CHO cells [3]; 48 hours) | co-localization with Golgi marker BODIPY-TR-Ceramide [4] | fluorescence (emission) intensity in cells with the lapse of time [5] | time from incorporation into the cell until the cell is killed (cell) | cell number after addition (24 hours) relative to before addition (CHO cells [6]) | cell number after addition (24 hours) (CHO cells [6]) | alteration of cell shape (roundation) (CHO cells [7]) | fraction remaining as it is without being metabolized in 48 hours (CHO cells [3]; 48 hours) | cell number after addition (24 hours) relative to before addition (CHO cells [6]; listed as Acetyl-C16-ceramide-NBD)
1 | CCCCCCCCCCCCC/C=C/[C@@H](O)[C@H](CO)NC(=O)CCCCCNc1ccc([N+](=O)[O-])c2nonc12 [NBD-C6-ceramide] | remains in the Golgi apparatus | decreased with the lapse of time | 30% | decreased by half | ~90% | co-localized with the BODIPY-TR-Ceramide | attenuated with the lapse of time | ≤ 24 h | 77% and 77 ± 2% | 9,690 ± 260 cells/well | the alteration of cell shapge (roundation) was observed | – | –
2 | CCCCCCCCCCCCCCCC(=O)N[C@@H](COC(C)=O)[C@H](O)/C=C/CCCCCCCCCNc1ccc([N+](=O)[O-])c2nonc12 [compound 9, (2S,3R)-(E)-3-hydroxy-14-((7-nitrobenzo[c][1,2,5]oxadiazole-4-yl)amino)-2-palmitamide tetradec-4-en-1-yl acetate] | – | increased with the lapse of time | around 10% | – | – | co-localized with the BODIPY-TR-Ceramide | gradually increased with the lapse of time | – | 159% | 20,000 ± 4100 cells/well | the roundation was not observed | ≥ 70% | 159 ± 33%
